Test results as given in the NIST ThermoML archive (doi:10.1021/je400529k).
± gives the expanded uncertainty stated by the source.

Key:
[1] = xn = mol fraction of the nth substance listed; conditions: 101 kPa, Liquid; for mass density: Vibrating tube method; for viscosity: Capillary tube (Ostwald / Ubbelohde) method
[2] = refractive index (Na D-line) (dimensionless); xn = mol fraction of the nth substance listed; conditions: 101 kPa, Liquid, Standard Abbe refractometry

CCC1CCCCC1 [ethylcyclohexane] + C1C[C@@H]2[C@H]3CC[C@H](C3)[C@@H]2C1
mass density ([1]; 308.15 K, x2 = 0.5001): 852.03 ± 0.14 kg/m3 | mass density ([1]; 308.15 K, x2 = 0.6011): 866.92 ± 0.14 kg/m3 | mass density ([1]; 308.15 K, x2 = 0.7): 881.34 ± 0.14 kg/m3 | mass density ([1]; 308.15 K, x2 = 0.8001): 895.72 ± 0.15 kg/m3 | mass density ([1]; 308.15 K, x2 = 0.8996): 909.89 ± 0.15 kg/m3 | viscosity ([1]; 313.15 K, x2 = 0): 0.661 ± 0.009 mPa·s | viscosity ([1]; 313.15 K, x2 = 0.0997): 0.727 ± 0.009 mPa·s | viscosity ([1]; 313.15 K, x2 = 0.2006): 0.804 ± 0.009 mPa·s | viscosity ([1]; 313.15 K, x2 = 0.3001): 0.9 ± 0.01 mPa·s | viscosity ([1]; 313.15 K, x2 = 0.4003): 1.005 ± 0.01 mPa·s | viscosity ([1]; 313.15 K, x2 = 0.5001): 1.12 ± 0.01 mPa·s | viscosity ([1]; 313.15 K, x2 = 0.6011): 1.261 ± 0.011 mPa·s | viscosity ([1]; 313.15 K, x2 = 0.7): 1.417 ± 0.012 mPa·s | viscosity ([1]; 313.15 K, x2 = 0.8001): 1.602 ± 0.012 mPa·s | viscosity ([1]; 313.15 K, x2 = 0.8996): 1.82 ± 0.014 mPa·s | mass density ([1]; 313.15 K, x2 = 0): 771.86 ± 0.15 kg/m3 | mass density ([1]; 313.15 K, x2 = 0.0997): 787.34 ± 0.15 kg/m3 | mass density ([1]; 313.15 K, x2 = 0.2006): 802.87 ± 0.15 kg/m3 | mass density ([1]; 313.15 K, x2 = 0.3001): 818 ± 0.15 kg/m3 | mass density ([1]; 313.15 K, x2 = 0.4003): 833.14 ± 0.14 kg/m3 | mass density ([1]; 313.15 K, x2 = 0.5001): 848.02 ± 0.14 kg/m3 | mass density ([1]; 313.15 K, x2 = 0.6011): 862.92 ± 0.14 kg/m3 | mass density ([1]; 313.15 K, x2 = 0.7): 877.36 ± 0.15 kg/m3 | mass density ([1]; 313.15 K, x2 = 0.8001): 891.76 ± 0.15 kg/m3 | mass density ([1]; 313.15 K, x2 = 0.8996): 905.95 ± 0.15 kg/m3 | viscosity ([1]; 318.15 K, x2 = 0): 0.626 ± 0.009 mPa·s | viscosity ([1]; 318.15 K, x2 = 0.0997): 0.687 ± 0.009 mPa·s | viscosity ([1]; 318.15 K, x2 = 0.2006): 0.758 ± 0.009 mPa·s | viscosity ([1]; 318.15 K, x2 = 0.3001): 0.845 ± 0.009 mPa·s | viscosity ([1]; 318.15 K, x2 = 0.4003): 0.942 ± 0.01 mPa·s | viscosity ([1]; 318.15 K, x2 = 0.5001): 1.047 ± 0.01 mPa·s | viscosity ([1]; 318.15 K, x2 = 0.6011): 1.175 ± 0.011 mPa·s | viscosity ([1]; 318.15 K, x2 = 0.7): 1.317 ± 0.011 mPa·s | viscosity ([1]; 318.15 K, x2 = 0.8001): 1.485 ± 0.012 mPa·s | viscosity ([1]; 318.15 K, x2 = 0.8996): 1.682 ± 0.013 mPa·s | mass density ([1]; 318.15 K, x2 = 0): 767.78 ± 0.15 kg/m3 | mass density ([1]; 318.15 K, x2 = 0.0997): 783.25 ± 0.15 kg/m3 | mass density ([1]; 318.15 K, x2 = 0.2006): 798.78 ± 0.15 kg/m3 | mass density ([1]; 318.15 K, x2 = 0.3001): 813.96 ± 0.15 kg/m3 | mass density ([1]; 318.15 K, x2 = 0.4003): 829.08 ± 0.15 kg/m3 | mass density ([1]; 318.15 K, x2 = 0.5001): 843.99 ± 0.15 kg/m3 | mass density ([1]; 318.15 K, x2 = 0.6011): 858.88 ± 0.15 kg/m3 | mass density ([1]; 318.15 K, x2 = 0.7): 873.35 ± 0.15 kg/m3 | mass density ([1]; 318.15 K, x2 = 0.8001): 887.8 ± 0.15 kg/m3 | mass density ([1]; 318.15 K, x2 = 0.8996): 901.99 ± 0.15 kg/m3 | refractive index ([2]; 293.15 K, x2 = 0): 1.4319 ± 0.001 | refractive index ([2]; 293.15 K, x2 = 0.0997): 1.4378 ± 0.001 | refractive index ([2]; 293.15 K, x2 = 0.2006): 1.4437 ± 0.001 | refractive index ([2]; 293.15 K, x2 = 0.3001): 1.4494 ± 0.001 | refractive index ([2]; 293.15 K, x2 = 0.4003): 1.4551 ± 0.001 | refractive index ([2]; 293.15 K, x2 = 0.5001): 1.4605 ± 0.001 | refractive index ([2]; 293.15 K, x2 = 0.6011): 1.4667 ± 0.001 | refractive index ([2]; 293.15 K, x2 = 0.7): 1.4717 ± 0.001 | refractive index ([2]; 293.15 K, x2 = 0.8001): 1.4769 ± 0.001 | refractive index ([2]; 293.15 K, x2 = 0.8996): 1.4824 ± 0.001 | refractive index ([2]; 303.15 K, x2 = 0): 1.4276 ± 0.001 | refractive index ([2]; 303.15 K, x2 = 0.0997): 1.4334 ± 0.001 | refractive index ([2]; 303.15 K, x2 = 0.2006): 1.4389 ± 0.001 | refractive index ([2]; 303.15 K, x2 = 0.3001): 1.4446 ± 0.001 | refractive index ([2]; 303.15 K, x2 = 0.4003): 1.4506 ± 0.001 | refractive index ([2]; 303.15 K, x2 = 0.5001): 1.4559 ± 0.001 | refractive index ([2]; 303.15 K, x2 = 0.6011): 1.4617 ± 0.001 | refractive index ([2]; 303.15 K, x2 = 0.7): 1.4674 ± 0.001 | refractive index ([2]; 303.15 K, x2 = 0.8001): 1.4724 ± 0.001 | refractive index ([2]; 303.15 K, x2 = 0.8996): 1.4776 ± 0.001 | refractive index ([2]; 313.15 K, x2 = 0): 1.4225 ± 0.001 | refractive index ([2]; 313.15 K, x2 = 0.0997): 1.4286 ± 0.001 | refractive index ([2]; 313.15 K, x2 = 0.2006): 1.4343 ± 0.001 | refractive index ([2]; 313.15 K, x2 = 0.3001): 1.4401 ± 0.001 | refractive index ([2]; 313.15 K, x2 = 0.4003): 1.4458 ± 0.001 | refractive index ([2]; 313.15 K, x2 = 0.5001): 1.4514 ± 0.001 | refractive index ([2]; 313.15 K, x2 = 0.6011): 1.4572 ± 0.001 | refractive index ([2]; 313.15 K, x2 = 0.7): 1.4625 ± 0.001 | refractive index ([2]; 313.15 K, x2 = 0.8001): 1.4679 ± 0.001 | refractive index ([2]; 313.15 K, x2 = 0.8996): 1.4732 ± 0.001
